One block for each compound: values may come before it.
What was measured:
panel of kinases = details: cited from earlier work
tumor xenografts = details: references 12-14; cited from earlier work
[1] = references 12-14; cited from earlier work
Ca++ channel = assay: Affinity to brain targets (panel); assay type: binding
5-HT2A-2C = assay: Affinity to brain targets (panel); assay type: binding
5-HT1A-1E = assay: Affinity to brain targets (panel); assay type: binding
α2A-2C = assay: Affinity to brain targets (panel); assay type: binding
GABA = assay: Affinity to brain targets (panel); assay type: binding
NT = assay: Affinity to brain targets (panel); assay type: binding; details: NT: neurotrophin
Smoothened = Smoothened (Homo sapiens, UniProt Q99835); assay: Affinity to brain targets (panel); assay type: binding
EP = assay: Affinity to brain targets (panel); assay type: binding; details: EP: prostanoid receptors
Sigma2 = Sigma2 (Homo sapiens, UniProt Q5BJF2); assay: Affinity to brain targets (panel); assay type: binding; details: Sigma2 (Sigma 2)
Sigma2, sequence (Q5BJF2 whole entry): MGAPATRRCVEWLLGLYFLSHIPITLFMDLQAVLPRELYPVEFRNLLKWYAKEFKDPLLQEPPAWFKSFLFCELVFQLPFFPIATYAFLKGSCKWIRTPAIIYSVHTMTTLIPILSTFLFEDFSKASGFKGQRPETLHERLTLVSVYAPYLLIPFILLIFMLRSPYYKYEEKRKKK

DAT = DAT (Homo sapiens, UniProt Q01959); assay: Affinity to brain targets (panel); assay type: binding; details: DAT: dopamine transporters
5-HT3-7 = assay: Affinity to brain targets (panel); assay type: binding
NK = assay: Affinity to brain targets (panel); assay type: binding; details: NK: neurokinin
Sigma1 = Sigma1 (Homo sapiens, UniProt Q99720); assay: Affinity to brain targets (panel); assay type: binding
Sigma1, sequence (Q99720 whole entry): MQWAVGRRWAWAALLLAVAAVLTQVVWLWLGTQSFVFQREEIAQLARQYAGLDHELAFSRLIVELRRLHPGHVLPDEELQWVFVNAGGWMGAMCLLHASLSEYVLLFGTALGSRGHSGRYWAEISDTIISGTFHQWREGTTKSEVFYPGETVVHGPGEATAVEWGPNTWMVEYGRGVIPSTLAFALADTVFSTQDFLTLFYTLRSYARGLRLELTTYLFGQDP

M = assay: Affinity to brain targets (panel); assay type: binding; details: M: muscarinic
PBR = PBR (Homo sapiens, UniProt P30536); assay: Affinity to brain targets (panel); assay type: binding
PBR, sequence (P30536 whole entry, species assumed): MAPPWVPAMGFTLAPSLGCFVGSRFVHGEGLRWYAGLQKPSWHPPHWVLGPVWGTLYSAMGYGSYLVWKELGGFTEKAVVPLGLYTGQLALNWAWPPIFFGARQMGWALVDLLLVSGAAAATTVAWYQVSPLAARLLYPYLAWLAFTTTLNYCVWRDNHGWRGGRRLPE

H3, H4 = assay: Affinity to brain targets (panel); assay type: binding; details: H3, H4: histamine
BZP = assay: Affinity to brain targets (panel); assay type: binding; details: BZP: benzodiazepine
SERT = SERT (Homo sapiens, UniProt P31645); assay: Affinity to brain targets (panel); assay type: binding; details: SERT: serotonin transporter
SERT, sequence (P31645 whole entry, species assumed): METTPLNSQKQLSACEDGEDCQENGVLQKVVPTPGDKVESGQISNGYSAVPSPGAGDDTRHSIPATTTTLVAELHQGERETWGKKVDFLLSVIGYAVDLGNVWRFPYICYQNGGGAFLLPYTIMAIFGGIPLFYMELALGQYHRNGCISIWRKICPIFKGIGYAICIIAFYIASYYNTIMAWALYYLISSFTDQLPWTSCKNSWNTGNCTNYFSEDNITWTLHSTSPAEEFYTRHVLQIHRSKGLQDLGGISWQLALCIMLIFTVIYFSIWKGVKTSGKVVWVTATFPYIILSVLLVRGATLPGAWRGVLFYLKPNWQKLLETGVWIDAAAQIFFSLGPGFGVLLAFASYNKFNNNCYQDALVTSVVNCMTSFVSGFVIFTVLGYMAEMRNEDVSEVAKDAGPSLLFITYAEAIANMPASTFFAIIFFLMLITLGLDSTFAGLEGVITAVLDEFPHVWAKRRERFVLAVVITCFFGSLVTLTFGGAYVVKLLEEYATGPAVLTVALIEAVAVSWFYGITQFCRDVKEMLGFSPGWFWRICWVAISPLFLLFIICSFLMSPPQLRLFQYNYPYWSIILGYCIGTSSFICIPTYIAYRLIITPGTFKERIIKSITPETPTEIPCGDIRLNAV

CB1, CB2 = assay: Affinity to brain targets (panel); assay type: binding
Oxytocin = target: T1, Oxytocin (Homo sapiens, UniProt P30559); assay: Affinity to brain targets (panel); assay type: binding
T1 sequence (P30559 1-389): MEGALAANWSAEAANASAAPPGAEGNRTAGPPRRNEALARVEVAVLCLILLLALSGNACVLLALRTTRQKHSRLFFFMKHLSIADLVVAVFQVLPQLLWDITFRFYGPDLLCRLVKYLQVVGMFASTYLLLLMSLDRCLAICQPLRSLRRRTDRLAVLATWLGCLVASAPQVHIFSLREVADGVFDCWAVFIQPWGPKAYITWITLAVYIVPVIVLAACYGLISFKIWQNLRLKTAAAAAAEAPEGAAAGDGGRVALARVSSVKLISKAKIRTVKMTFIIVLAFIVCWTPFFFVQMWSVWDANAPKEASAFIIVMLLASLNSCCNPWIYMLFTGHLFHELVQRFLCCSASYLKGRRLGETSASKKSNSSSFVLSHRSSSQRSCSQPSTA

D1-D5 = assay: Affinity to brain targets (panel); assay type: binding
MOR = MOR (Homo sapiens, UniProt P35372); assay: Affinity to brain targets (panel); assay type: binding; details: MOR: mu opioid receptor
NOP = NOP (Homo sapiens, UniProt P41146); assay: Affinity to brain targets (panel); assay type: binding
NET = NET (Homo sapiens, UniProt P23975); assay: Affinity to brain targets (panel); assay type: binding; details: NET: norepinephrine transporter
NET, sequence (P23975 whole entry): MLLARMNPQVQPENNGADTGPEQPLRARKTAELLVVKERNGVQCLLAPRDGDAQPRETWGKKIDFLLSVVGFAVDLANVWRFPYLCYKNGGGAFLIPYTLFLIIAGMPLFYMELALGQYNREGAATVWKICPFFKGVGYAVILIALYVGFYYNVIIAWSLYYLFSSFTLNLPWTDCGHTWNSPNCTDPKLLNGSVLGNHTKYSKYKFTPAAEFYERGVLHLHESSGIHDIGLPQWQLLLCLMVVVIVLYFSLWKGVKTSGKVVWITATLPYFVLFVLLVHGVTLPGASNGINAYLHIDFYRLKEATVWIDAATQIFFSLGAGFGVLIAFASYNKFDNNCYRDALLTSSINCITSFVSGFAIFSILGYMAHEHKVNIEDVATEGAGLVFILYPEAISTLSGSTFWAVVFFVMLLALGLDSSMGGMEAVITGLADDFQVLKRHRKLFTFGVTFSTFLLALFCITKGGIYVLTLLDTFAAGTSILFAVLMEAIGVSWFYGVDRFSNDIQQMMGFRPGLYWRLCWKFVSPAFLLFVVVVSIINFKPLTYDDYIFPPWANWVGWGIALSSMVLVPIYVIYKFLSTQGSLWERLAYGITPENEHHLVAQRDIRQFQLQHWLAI

H1 = H1 (Homo sapiens, UniProt P35367); assay: Affinity to brain targets (panel); assay type: binding; details: H1: histamine
AMPA = assay: Affinity to brain targets (panel); assay type: binding
mGluR = assay: Affinity to brain targets (panel); assay type: binding; details: mGluR (mGluRs): metabotropic glutamate receptors
H2 = H2 (Homo sapiens, UniProt P25021); assay: Affinity to brain targets (panel); assay type: binding; details: H2: histamine
H2, sequence (P25021 whole entry): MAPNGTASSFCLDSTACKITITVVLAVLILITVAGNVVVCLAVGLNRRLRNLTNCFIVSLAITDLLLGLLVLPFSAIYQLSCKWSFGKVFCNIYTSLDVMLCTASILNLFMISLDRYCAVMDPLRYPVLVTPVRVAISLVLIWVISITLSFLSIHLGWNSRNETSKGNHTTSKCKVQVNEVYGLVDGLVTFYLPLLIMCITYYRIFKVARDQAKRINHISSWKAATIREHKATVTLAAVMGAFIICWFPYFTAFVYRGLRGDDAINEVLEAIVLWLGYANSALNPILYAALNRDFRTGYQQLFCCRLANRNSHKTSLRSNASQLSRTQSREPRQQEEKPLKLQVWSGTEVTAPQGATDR

Na+ Channel = assay: Affinity to brain targets (panel); assay type: binding
KOR = KOR (Homo sapiens, UniProt P41145); assay: Affinity to brain targets (panel); assay type: binding; details: KOR: kappa opioid receptors
MDR1 = MDR1 (Homo sapiens, UniProt P08183); assay: Affinity to brain targets (panel); assay type: binding; details: MDR1: multidrug resistance
MDR1, sequence (P08183 whole entry, species assumed): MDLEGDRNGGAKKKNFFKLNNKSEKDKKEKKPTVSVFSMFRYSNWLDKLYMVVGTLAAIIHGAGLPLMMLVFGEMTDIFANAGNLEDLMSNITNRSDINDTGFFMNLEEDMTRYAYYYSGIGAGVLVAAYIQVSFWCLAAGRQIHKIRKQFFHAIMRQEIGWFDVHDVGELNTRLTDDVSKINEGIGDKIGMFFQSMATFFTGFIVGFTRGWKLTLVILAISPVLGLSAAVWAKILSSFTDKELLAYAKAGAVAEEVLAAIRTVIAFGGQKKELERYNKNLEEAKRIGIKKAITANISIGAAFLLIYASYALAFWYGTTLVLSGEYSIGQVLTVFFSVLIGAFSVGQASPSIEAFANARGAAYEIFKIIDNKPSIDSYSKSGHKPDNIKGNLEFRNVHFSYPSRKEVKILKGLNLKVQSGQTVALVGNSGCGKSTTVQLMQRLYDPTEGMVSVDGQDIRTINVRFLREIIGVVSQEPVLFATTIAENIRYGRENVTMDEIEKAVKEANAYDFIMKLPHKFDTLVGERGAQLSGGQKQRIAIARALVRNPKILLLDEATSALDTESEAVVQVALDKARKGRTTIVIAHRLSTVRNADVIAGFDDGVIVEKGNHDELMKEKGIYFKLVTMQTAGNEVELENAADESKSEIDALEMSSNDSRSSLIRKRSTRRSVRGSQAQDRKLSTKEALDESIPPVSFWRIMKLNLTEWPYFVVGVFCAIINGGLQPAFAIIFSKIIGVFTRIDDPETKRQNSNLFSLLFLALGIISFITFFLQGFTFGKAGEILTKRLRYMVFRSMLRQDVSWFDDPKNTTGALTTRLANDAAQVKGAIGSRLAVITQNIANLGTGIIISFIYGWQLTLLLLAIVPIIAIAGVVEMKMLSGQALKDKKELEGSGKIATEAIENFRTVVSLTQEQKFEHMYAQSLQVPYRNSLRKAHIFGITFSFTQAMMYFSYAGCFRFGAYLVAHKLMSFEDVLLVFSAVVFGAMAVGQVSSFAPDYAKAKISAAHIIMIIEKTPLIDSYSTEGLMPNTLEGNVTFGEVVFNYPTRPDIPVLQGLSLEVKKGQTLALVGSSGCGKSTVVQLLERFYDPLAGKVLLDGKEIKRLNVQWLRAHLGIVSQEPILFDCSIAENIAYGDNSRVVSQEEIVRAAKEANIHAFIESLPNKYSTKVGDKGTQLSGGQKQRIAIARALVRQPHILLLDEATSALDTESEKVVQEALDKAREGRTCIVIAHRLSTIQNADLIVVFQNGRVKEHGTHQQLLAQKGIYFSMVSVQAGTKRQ

HERG = HERG (Homo sapiens, UniProt Q12809); assay: Affinity to brain targets (panel); assay type: binding; details: HERG: human ether-a-go-go
HERG, sequence (Q12809 whole entry): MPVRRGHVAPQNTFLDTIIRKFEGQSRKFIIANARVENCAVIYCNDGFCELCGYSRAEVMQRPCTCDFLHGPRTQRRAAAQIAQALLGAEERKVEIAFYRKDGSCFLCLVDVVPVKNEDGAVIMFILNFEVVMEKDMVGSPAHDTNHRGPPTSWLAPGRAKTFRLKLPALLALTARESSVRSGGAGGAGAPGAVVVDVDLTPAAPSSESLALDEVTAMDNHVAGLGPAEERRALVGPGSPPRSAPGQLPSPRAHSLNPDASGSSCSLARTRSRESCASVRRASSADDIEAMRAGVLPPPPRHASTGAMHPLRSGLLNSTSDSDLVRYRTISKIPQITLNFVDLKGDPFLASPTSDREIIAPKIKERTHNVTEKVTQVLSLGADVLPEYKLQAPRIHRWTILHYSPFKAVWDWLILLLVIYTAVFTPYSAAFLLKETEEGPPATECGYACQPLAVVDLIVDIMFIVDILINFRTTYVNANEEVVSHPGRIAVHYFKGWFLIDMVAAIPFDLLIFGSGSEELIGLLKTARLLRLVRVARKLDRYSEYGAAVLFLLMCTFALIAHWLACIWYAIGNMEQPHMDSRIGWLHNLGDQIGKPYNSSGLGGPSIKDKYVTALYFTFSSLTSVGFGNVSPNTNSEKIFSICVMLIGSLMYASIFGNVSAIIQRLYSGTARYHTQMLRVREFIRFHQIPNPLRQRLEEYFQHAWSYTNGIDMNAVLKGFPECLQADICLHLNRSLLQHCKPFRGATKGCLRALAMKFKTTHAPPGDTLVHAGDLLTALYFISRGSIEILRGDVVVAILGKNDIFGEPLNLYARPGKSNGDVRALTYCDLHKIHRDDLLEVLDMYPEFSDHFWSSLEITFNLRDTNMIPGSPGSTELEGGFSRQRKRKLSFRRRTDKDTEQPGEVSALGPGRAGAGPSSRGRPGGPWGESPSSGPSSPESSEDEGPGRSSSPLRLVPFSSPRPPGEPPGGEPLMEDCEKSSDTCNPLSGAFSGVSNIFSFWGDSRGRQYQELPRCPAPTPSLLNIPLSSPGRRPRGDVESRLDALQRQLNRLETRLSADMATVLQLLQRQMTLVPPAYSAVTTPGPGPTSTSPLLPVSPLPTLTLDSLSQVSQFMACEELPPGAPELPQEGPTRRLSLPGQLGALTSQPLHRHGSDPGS

KA = assay: Affinity to brain targets (panel); assay type: binding; details: KA (KAR): Kainate
DOR = DOR (Homo sapiens, UniProt P41143); assay: Affinity to brain targets (panel); assay type: binding; details: DOR: delta opioid receptors
DOR, sequence (P41143 whole entry): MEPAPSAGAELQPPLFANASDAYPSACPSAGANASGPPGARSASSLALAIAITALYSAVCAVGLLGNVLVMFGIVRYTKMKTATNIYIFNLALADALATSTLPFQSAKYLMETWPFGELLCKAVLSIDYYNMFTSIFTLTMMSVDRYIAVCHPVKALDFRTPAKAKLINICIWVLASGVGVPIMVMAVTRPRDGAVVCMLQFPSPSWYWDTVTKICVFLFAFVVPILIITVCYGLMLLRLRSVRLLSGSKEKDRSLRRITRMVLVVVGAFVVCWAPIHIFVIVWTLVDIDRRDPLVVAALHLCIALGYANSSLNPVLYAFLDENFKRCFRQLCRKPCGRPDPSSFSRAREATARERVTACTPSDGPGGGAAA

Adenosine = assay: Affinity to brain targets (panel); assay type: binding; details: Adenosine (A)
VMAT = assay: Affinity to brain targets (panel); assay type: binding; details: VMAT (VMAT 1,2): vesicular monoamine transporter
α1A-1C = assay: Affinity to brain targets (panel); assay type: binding
β1-3 = assay: Affinity to brain targets (panel); assay type: binding
NMDA = assay: Affinity to brain targets (panel); assay type: binding
PKC = assay: Affinity to brain targets (panel); assay type: binding; details: PKC: Protein kinase C
I = assay: Affinity to brain targets (panel); assay type: binding
brain MTs = assay: MicroPET in mice brain; assay type: in vivo; details: for BBB penetration and brain distribution: microPET, mice
Experimental: Blocking with unlabeled MPC-6827 and HD-800 (5 mg/kg/i.v) 20 minute prior to radioligand administration indicates specific binding of radiotracer to brain MTs. […] Time activity curves (TACs) further confirm the washout of [^11C]HD-800 in mice brain and excellent specific binding with unlabeled HD-800 and MPC-6827 as blocking agents (FIG. 9).^23-24
The distribution pattern of [^18F]FEMPC-6827 in the mice brain is similar to that of [^11C]MPC-6827 and [^11C]HD-800.

SMILES: COc1ccc2c(c1)NC(=O)CN2c1nc(C)nc2ccccc12 [WX-132-18B, 7-Methoxy-4-(2-methylquinazolin-4-yl)-3,4-dihydroquinoxalin-2(1H)-one]
binding to a panel / variety of kinases (panel of kinases): selective | tumor growth inhibition (TGI) compared with paclitaxel (tumor xenografts): higher tumor growth inhibition (TGI) than paclitaxel | BBB penetration [1]: BBB penetrant

SMILES: Cc1nc(N(C)c2ccc(OCCF)cc2)c2ccccc2n1 [FEMPC-6827]
Ki (Ca++ channel): > 10 µM | Ki (5-HT2A-2C): > 10 µM | Ki (5-HT1A-1E): > 10 µM | Ki (α2A-2C): > 10 µM | Ki (GABA): > 10 µM | Ki (NT): > 10 µM | Ki (Smoothened): > 10 µM | Ki (EP): > 10 µM | Ki (Sigma2): 2.46 µM | Ki (DAT): > 10 µM | Ki (5-HT3-7): > 10 µM | Ki (NK): > 10 µM | Ki (Sigma1): 0.051 µM | Ki (M): > 10 µM | Ki (PBR): 1.59 µM | Ki (H3, H4): > 10 µM | Ki (BZP): > 10 µM | Ki (SERT): > 10 µM | Ki (CB1, CB2): > 10 µM | Ki (Oxytocin): > 10 µM | Ki (D1-D5): > 10 µM | Ki (MOR): > 10 µM | Ki (NOP): > 10 µM | Ki (NET): > 10 µM | Ki (H1): 0.305 µM | Ki (AMPA): > 10 µM | Ki (mGluR): > 10 µM | Ki (H2): 2.31 µM | Ki (Na+ Channel): > 10 µM | Ki (KOR): > 10 µM | Ki (MDR1): > 10 µM | Ki (HERG): > 10 µM | Ki (KA): > 10 µM | Ki (DOR): > 10 µM | Ki (Adenosine): > 10 µM | Ki (VMAT): > 10 µM | Ki (α1A-1C): > 10 µM | Ki (β1-3): > 10 µM | Ki (NMDA): > 10 µM | Ki (PKC): > 10 µM | Ki (I): > 10 µM

SMILES: Cc1nc(N(C)c2ccc(OCC[18F])cc2)c2ccccc2n1 [[^18F]FEMPC-6827]
BBB penetration and brain distribution (brain MTs): blood brain barrier penetration and accumulation in the brain

SMILES: Cc1coc2ncnc(N(C)c3ccc(O[11CH3])cc3)c12 [[^11C]HD-800]
BBB penetration and brain distribution (brain MTs): penetrated the BBB followed by a homogeneous distribution in the mouse brain | blocking of brain activity (brain MTs; unlabeled MPC-6827 and HD-800 (5 mg/kg/i.v) 20 minute prior to radioligand): significant decreasing activity

Ki (Ca++ channel): > 10 µM | Ki (5-HT2A-2C): > 10 µM | Ki (5-HT1A-1E): > 10 µM | Ki (α2A-2C): > 10 µM | Ki (GABA): > 10 µM | Ki (NT): > 10 µM | Ki (Smoothened): > 10 µM | Ki (EP): > 10 µM | Ki (Sigma2): 2.46 µM | Ki (DAT): > 10 µM | Ki (5-HT3-7): > 10 µM | Ki (NK): > 10 µM | Ki (Sigma1): 0.832 µM | Ki (M): > 10 µM | Ki (PBR): > 10 µM | Ki (H3, H4): > 10 µM | Ki (BZP): > 10 µM | Ki (SERT): > 10 µM | Ki (CB1, CB2): > 10 µM | Ki (Oxytocin): > 10 µM | Ki (D1-D5): > 10 µM | Ki (MOR): > 10 µM | Ki (NOP): > 10 µM | Ki (NET): > 10 µM | Ki (H1): 3.37 µM | Ki (AMPA): > 10 µM | Ki (mGluR): > 10 µM | Ki (H2): > 10 µM | Ki (Na+ Channel): > 10 µM | Ki (KOR): > 10 µM | Ki (MDR1): > 10 µM | Ki (KA): > 10 µM | Ki (DOR): > 10 µM | Ki (Adenosine): > 10 µM | Ki (VMAT): > 10 µM | Ki (α1A-1C): > 10 µM | Ki (β1-3): > 10 µM | Ki (NMDA): > 10 µM | Ki (PKC): > 10 µM | Ki (I): > 10 µM
SMILES: Cc1nc(N(C)c2ccc(OCCF)cc2)c2c(C)coc2n1 [FE-HD-800]
Ki (HERG): > 10 µM
